Glass transition temperature data for 52 compounds are collected here from the PolyMetriX glass transition set.

The structures appear in SMILES notation.

Compound `*C(=O)c1ccc2c(c1)C(=O)N(c1cccc(C(=O)c3ccc(C(=O)c4cccc(N5C(=O)c6ccc(*)cc6C5=O)c4)cc3)c1)C2=O` (repeat unit) showed a glass transition temperature of 240.00 °C. Compound `*C(=O)c1ccc2c(c1)C(=O)N(c1cccc(C(=O)c3cccc(N4C(=O)c5ccc(*)cc5C4=O)c3)c1)C2=O` (repeat unit) registered a glass transition temperature of 242.00 °C. Consider `*C(=O)c1ccc2c(c1)C(=O)N(c1cccc(C(O[Si](C)(C)O[Si](C)(C)O[Si](C)(C)C)c3cccc(N4C(=O)c5ccc(*)cc5C4=O)c3)c1)C2=O` (repeat unit), for which the glass transition temperature is 235.00 °C. Consider `*CCCCCCCCCCc1nc2ccc(-c3ccc4nc(*)oc4c3)cc2o1` (repeat unit), for which the glass transition temperature amounted to 64.00 °C. `*CCCCCCCCCc1nc2ccc(-c3ccc4nc(*)oc4c3)cc2o1` (repeat unit) registered a glass transition temperature of 64.00 °C. The compound `*CCCCCCCCc1nc2ccc(-c3ccc4nc(*)oc4c3)cc2o1` (repeat unit) returned a glass transition temperature of 223.50 °C.

Compound `*CCCCCCCCc1nc2ccc(-c3ccc4nc(*)sc4c3)cc2s1` (repeat unit) yielded a glass transition temperature of 238.00 °C. Regarding `*CCCCCCCc1nc2ccc(-c3ccc4nc(*)oc4c3)cc2o1` (repeat unit), the glass transition temperature amounted to 85.00 °C. For the compound `*c1ccc(-c2ccc(-c3c(-c4ccccc4)nc4ccc(-c5ccc6nc(-c7ccccc7)c(*)c(-c7ccccc7)c6c5)cc4c3-c3ccccc3)cc2)cc1` (repeat unit), the glass transition temperature amounted to 405.00 °C. The compound `*c1ccc(-c2ccc(-c3ccc4c(c3)C(CCCCCCCC)(CCCCCCCC)c3cc(-c5ccc(*)s5)ccc3-4)s2)cn1` (repeat unit) had a glass transition temperature of 127.50 °C. To `*c1ccc(-c2nc3cc(S(=O)(=O)c4ccc5nc(*)c(-c6ccccc6)nc5c4)ccc3nc2-c2ccccc2)cc1` (repeat unit) belongs 277.50 °C; to `*c1ccc(-c2nnc(-c3cccc(-c4nnc(*)o4)c3)o2)cc1` (repeat unit), 278.00 °C. As to `*c1ccc(-n2ccc(-c3cccc(-c4ccn(*)n4)c3)n2)cc1` (repeat unit), the glass transition temperature worked out at 75.00 °C. To `*c1ccc(C2(c3ccc(-c4cc(-c5ccccc5)c5cc(C6(c7ccc8nc(*)cc(-c9ccccc9)c8c7)c7ccccc7C(=O)c7ccccc76)ccc5n4)cc3)c3ccccc3-c3ccccc32)cc1` (repeat unit) belongs 405.00 °C; to `*c1ccc(Cc2ccc(-c3nc(-c4cccc(-c5nnc(-c6ccccc6)c(*)n5)n4)nnc3-c3ccccc3)cc2)cc1` (repeat unit), 205.00 °C; to `*c1ccc(OCCCCOc2ccc(-c3nc4ccc(-c5ccc6nc(*)c(-c7ccccc7)nc6c5)cc4nc3-c3ccccc3)cc2)cc1` (repeat unit), 240.00 °C. The figure for `*c1ccc(Oc2ccc(-c3cc(-c4cccc(-c5cc(*)c6ccccc6n5)c4)nc4ccccc34)cc2)cc1` (repeat unit) is 268.00 °C; for `*c1ccc(Oc2ccc(-c3cc(-c4ccccc4)c4cc(C5(c6ccc7nc(*)cc(-c8ccccc8)c7c6)c6ccccc6C(=O)c6ccccc65)ccc4n3)cc2)cc1` (repeat unit) it is 320.00 °C; for `*c1ccc(Oc2ccc(-c3nc4cc(S(=O)(=O)c5ccc6nc(-c7ccccc7)c(*)nc6c5)ccc4nc3-c3ccccc3)cc2)cc1` (repeat unit) it is 290.00 °C.

Compound `*c1ccc2c(c1)C(*)(C)CC2(C)C` (repeat unit) gave a glass transition temperature of 215.50 °C.

For the compound `*c1ccc2c(c1)C(=O)N(c1cccc(P(=O)(c3cccc(N4C(=O)c5ccc(C(*)(C(F)(F)F)C(F)(F)F)cc5C4=O)c3)c3cc(C(F)(F)F)cc(C(F)(F)F)c3)c1)C2=O` (repeat unit), the glass transition temperature came out at 247.00 °C.

`*c1ccc2c(c1)C(=O)N(c1cccc3c(N4C(=O)c5ccc(C(*)(C(F)(F)F)C(F)(F)F)cc5C4=O)cccc13)C2=O` (repeat unit) registered a glass transition temperature of 390.00 °C. Compound `*c1ccc2c(c1)C(CCCCCC)(CCCCCC)c1cc(-c3cc(CCCCCC)c(*)cc3CCCCCC)ccc1-2` (repeat unit) yielded a glass transition temperature of 78.80 °C.

In turn, `*c1ccc2c(c1)C(CCCCCC)(CCCCCC)c1cc(-c3ccc4c(c3)C(CC3=NC(Cc5ccccc5)CO3)(CC3=NC(Cc5ccccc5)CO3)c3cc(*)ccc3-4)ccc1-2` (repeat unit) displayed a glass transition temperature of 114.00 °C. On to `*c1ccc2c(c1)C(CCCCCCCC)(CCCCCCCC)c1cc(-c3ccc4c(c3)C(c3ccc(-c5nnc(-c6ccc(C(C)(C)C)cc6)o5)cc3)(c3ccc(-c5nnc(-c6ccc(C(C)(C)C)cc6)o5)cc3)c3cc(*)ccc3-4)ccc1-2` (repeat unit), for which the glass transition temperature worked out at 213.00 °C. Compound `*c1ccc2c(c1)Cc1cc(-n3c(=O)c4cc5c(=O)n(*)c(=O)c5cc4c3=O)ccc1-2` (repeat unit) returned a glass transition temperature of 322.00 °C. The figure for `*c1ccc2c(c1)Sc1cc(-c3ccc(-c4ccc(*)s4)s3)ccc1N2CCCCCC` (repeat unit) is 140.00 °C; for `*c1ccc2c3ccc(-c4ccc(-c5ccc(-c6ccc(*)s6)c6nccnc56)s4)cc3n(C(CCCCCCCC)CCCCCCCC)c2c1` (repeat unit) it is 116.00 °C; for `*c1ccc2nc(*)cc(-c3ccccc3)c2c1` (repeat unit) it is 415.00 °C. The figure for `*c1ccc2oc(-c3ccc(-c4nc5cc(C(*)(C(F)(F)F)C(F)(F)F)ccc5o4)cc3)nc2c1` (repeat unit) is 371.50 °C; for `*c1ccc2oc(-c3cccc(-c4nc5cc(C(*)(C(F)(F)F)C(F)(F)F)ccc5o4)n3)nc2c1` (repeat unit) it is 329.00 °C. On to `*c1ccc2oc(-c3cccc(-c4nc5cc(C(*)(c6ccccc6)C(F)(F)F)ccc5o4)c3)nc2c1` (repeat unit), for which the glass transition temperature was found to be 301.00 °C. As to `*c1cccc(-c2nc3cc(-c4ccc5c(c4)nc(*)n5C)ccc3[nH]2)c1` (repeat unit), the glass transition temperature was 346.66 °C. To `*c1cccc(-c2nc3cc(-c4ccc5nc(*)c(-c6ccc7ccccc7c6)nc5c4)ccc3nc2-c2ccc3ccccc3c2)c1` (repeat unit) belongs 317.00 °C. To `*c1cccc(-c2nc3cc4nc(-c5ccccc5)c(*)nc4cc3nc2-c2ccccc2)c1` (repeat unit) belongs 365.00 °C; to `*c1cccc(-c2nc3ccc(-c4ccc5nc(*)[nH]c5c4)cc3[nH]2)c1` (repeat unit), 420.00 °C. In turn, `*c1cccc(C(=O)c2ccc(Oc3ccc(N4C(=O)c5ccc(Oc6ccc7c(c6)C(=O)N(*)C7=O)cc5C4=O)cc3C(F)(F)F)cc2)c1` (repeat unit) gave a glass transition temperature of 224.00 °C. Take `*c1cccc(C(F)(F)C(F)(F)C(*)(F)F)c1` (repeat unit): the glass transition temperature amounted to 29.00 °C. Regarding `*c1cccc(C(O[Si](C)(C)O[Si](C)(C)O[Si](C)(C)C)c2cccc(N3C(=O)c4ccc(Oc5ccc6c(c5)C(=O)N(*)C6=O)cc4C3=O)c2)c1` (repeat unit), the glass transition temperature amounted to 219.00 °C. `*c1cccc(Cc2cccc(-n3c(=O)c4cc5c(=O)n(*)c(=O)c5cc4c3=O)c2)c1` (repeat unit) registered a glass transition temperature of 327.50 °C. On to `*c1cccc(Oc2ccc(-c3ccc(Oc4cccc(-n5c(=O)c6cc7c(=O)n(*)c(=O)c7cc6c5=O)c4)cc3)cc2)c1` (repeat unit), for which the glass transition temperature was 251.00 °C. The compound `*c1cccc(Oc2ccc(P(=O)(c3ccccc3)c3ccccc3)c(Oc3cccc(-n4c(=O)c5cc6c(=O)n(*)c(=O)c6cc5c4=O)c3)c2)c1` (repeat unit) came in with a glass transition temperature of 251.00 °C.

In turn, `*c1cccc(Oc2cccc(Oc3cccc(N4C(=O)c5c(c(-c6ccccc6)c(-c6ccc(-c7c(-c8ccccc8)c8c(c(-c9ccccc9)c7-c7ccccc7)C(=O)N(*)C8=O)cc6)c(-c6ccccc6)c5-c5ccccc5)C4=O)c3)c2)c1` (repeat unit) returned a glass transition temperature of 280.00 °C. In turn, `*c1cccc(P(=O)(c2ccc(C(F)(F)F)cc2)c2cccc(-n3c(=O)c4c(-c5ccccc5)c5c(=O)n(*)c(=O)c5c(-c5ccccc5)c4c3=O)c2)c1` (repeat unit) registered a glass transition temperature of 337.00 °C. The figure for `*c1cccc(P(=O)(c2ccc(C(F)(F)F)cc2)c2cccc(-n3c(=O)c4cc5c(=O)n(*)c(=O)c5c(-c5cc(C(F)(F)F)cc(C(F)(F)F)c5)c4c3=O)c2)c1` (repeat unit) is 290.00 °C; for `*c1cccc(P(=O)(c2ccc(C(F)(F)F)cc2)c2cccc(-n3c(=O)c4cc5c(=O)n(*)c(=O)c5cc4c3=O)c2)c1` (repeat unit) it is 311.00 °C; for `*c1cccc(P(=O)(c2cccc(-n3c(=O)c4c(-c5cc(C(F)(F)F)cc(C(F)(F)F)c5)c5c(=O)n(*)c(=O)c5c(-c5cc(C(F)(F)F)cc(C(F)(F)F)c5)c4c3=O)c2)c2cc(C(F)(F)F)cc(C(F)(F)F)c2)c1` (repeat unit) it is 293.00 °C. The compound `*c1cccc(P(=O)(c2cccc(-n3c(=O)c4c(-c5ccc(C(F)(F)F)cc5)c5c(=O)n(*)c(=O)c5c(-c5ccc(C(F)(F)F)cc5)c4c3=O)c2)c2cc(C(F)(F)F)cc(C(F)(F)F)c2)c1` (repeat unit) had a glass transition temperature of 310.00 °C. `*c1cccc(P(=O)(c2cccc(-n3c(=O)c4cc5c(=O)n(*)c(=O)c5c(-c5cc(C(F)(F)F)cc(C(F)(F)F)c5)c4c3=O)c2)c2cc(C(F)(F)F)cc(C(F)(F)F)c2)c1` (repeat unit): the glass transition temperature came to 280.00 °C. `*c1cccc(P(=O)(c2cccc(-n3c(=O)c4cc5c(=O)n(*)c(=O)c5c(-c5ccccc5)c4c3=O)c2)c2cc(C(F)(F)F)cc(C(F)(F)F)c2)c1` (repeat unit) yielded a glass transition temperature of 300.00 °C. For the compound `*c1cccc(P(=O)(c2cccc(-n3c(=O)c4cc5c(=O)n(*)c(=O)c5cc4c3=O)c2)c2cc(C(F)(F)F)cc(C(F)(F)F)c2)c1` (repeat unit), the glass transition temperature was determined as 281.00 °C. `*c1cccc(P(C)(=O)c2cccc(N3C(=O)c4ccc(NC(=O)OCCOc5ccc(C(c6ccc(OCCOC(=O)Nc7ccc8c(c7)C(=O)N(*)C8=O)cc6)(C(F)(F)F)C(F)(F)F)cc5)cc4C3=O)c2)c1` (repeat unit) gave a glass transition temperature of 204.00 °C.
